Measured values published in patent US11578069B2, “Compounds for inhibition of α4 β7 integrin” (Gilead Sciences, Inc., priority 2019, dated 2023).

Columns and labels:
[1] = biological target: T1, α4β7 integrin (Homo sapiens, UniProt P13612+P26010); experiment: α4β7 Integrin Cell Capture Assay; format: cell-based; conditions: capture of α4β7 integrin expressing RPM18866 cells on MadCAM-1 extracellular domain-coated plate
T1 construct: monitoring the capture of α4β7 integrin expressing cells; endogenous in cells; host or cells: RPMI8866
T1 sequence (P13612 34-1032): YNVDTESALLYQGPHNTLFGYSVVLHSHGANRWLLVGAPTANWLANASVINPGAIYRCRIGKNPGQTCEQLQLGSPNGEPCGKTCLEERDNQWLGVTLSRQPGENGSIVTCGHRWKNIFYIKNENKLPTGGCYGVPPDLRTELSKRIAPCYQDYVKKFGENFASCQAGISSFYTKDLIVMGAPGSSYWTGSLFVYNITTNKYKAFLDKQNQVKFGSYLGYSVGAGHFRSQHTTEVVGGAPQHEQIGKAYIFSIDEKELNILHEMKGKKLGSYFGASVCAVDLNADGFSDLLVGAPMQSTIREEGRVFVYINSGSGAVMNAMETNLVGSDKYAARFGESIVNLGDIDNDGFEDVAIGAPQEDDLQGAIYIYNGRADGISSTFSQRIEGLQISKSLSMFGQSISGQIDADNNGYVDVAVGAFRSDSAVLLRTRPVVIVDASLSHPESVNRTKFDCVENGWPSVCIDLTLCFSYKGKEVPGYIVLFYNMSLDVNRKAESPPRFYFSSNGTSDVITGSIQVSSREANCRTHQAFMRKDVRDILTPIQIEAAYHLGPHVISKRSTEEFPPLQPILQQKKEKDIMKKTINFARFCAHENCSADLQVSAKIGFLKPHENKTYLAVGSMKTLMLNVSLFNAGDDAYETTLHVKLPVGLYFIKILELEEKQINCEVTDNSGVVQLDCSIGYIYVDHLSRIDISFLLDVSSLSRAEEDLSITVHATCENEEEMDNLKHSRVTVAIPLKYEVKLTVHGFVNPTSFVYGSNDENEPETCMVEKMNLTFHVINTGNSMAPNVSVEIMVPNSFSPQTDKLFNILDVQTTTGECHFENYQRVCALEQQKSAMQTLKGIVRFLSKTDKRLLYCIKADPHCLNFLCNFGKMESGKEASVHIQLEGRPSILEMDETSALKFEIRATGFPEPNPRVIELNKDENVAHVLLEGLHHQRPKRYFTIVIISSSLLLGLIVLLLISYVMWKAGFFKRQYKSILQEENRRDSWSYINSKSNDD
T1 sequence (P26010 20-798): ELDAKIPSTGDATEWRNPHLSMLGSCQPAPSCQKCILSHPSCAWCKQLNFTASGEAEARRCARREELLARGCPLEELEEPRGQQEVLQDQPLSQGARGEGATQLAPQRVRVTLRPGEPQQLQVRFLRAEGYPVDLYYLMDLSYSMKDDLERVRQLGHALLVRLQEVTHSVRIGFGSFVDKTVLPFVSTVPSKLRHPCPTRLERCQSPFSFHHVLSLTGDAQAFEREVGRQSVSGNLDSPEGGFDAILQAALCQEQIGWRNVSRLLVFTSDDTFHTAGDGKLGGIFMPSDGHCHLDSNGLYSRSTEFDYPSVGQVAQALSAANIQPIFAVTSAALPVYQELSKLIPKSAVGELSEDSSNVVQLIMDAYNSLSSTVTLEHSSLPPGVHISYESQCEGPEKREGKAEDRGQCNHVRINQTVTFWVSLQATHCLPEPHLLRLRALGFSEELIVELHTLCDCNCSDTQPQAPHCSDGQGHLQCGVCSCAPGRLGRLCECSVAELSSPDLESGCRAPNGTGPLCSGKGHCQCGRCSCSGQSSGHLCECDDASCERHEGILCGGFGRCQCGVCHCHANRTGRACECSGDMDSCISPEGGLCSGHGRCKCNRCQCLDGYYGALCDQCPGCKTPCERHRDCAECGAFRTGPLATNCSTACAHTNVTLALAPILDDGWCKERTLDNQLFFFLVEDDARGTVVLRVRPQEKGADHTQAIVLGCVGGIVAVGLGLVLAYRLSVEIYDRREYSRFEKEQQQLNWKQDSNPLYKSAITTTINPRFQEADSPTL
Experimental: The potency of inhibitors in preventing α4β7 integrin interaction with MadCAM-1 was measured by monitoring the capture of α4β7 integrin expressing cells on a recombinant MadCAM-1 extracellular domain-coated plate.
384-well plates (Corning 3702) were coated with MadCAM-1 extracellular domain by dispensing 20 μL of MAdCAM-1 at 1.0 μg/mL per well and incubating overnight at 4° C. The plates were then washed with PBS and blocked with 3% BSA for 2 hours before being washed again.
(§1) RPM18866 cells were spun down and re-suspended in assay medium (DMEM+0.5% FBS+0.5 mM MnCl2) at a density of 0.5×10^6 cells/mL. The cells were then dispensed (60 μL/well) to a 384-well plate (Greiner 781280) that was previously spotted with 60 nL of test compound per well. The plates were incubated at 37° C. for 1 hour. 50 μL of cells were transferred to the blocked, MadCAM-1-coated plates and incubated for 30 minutes at 37° C. 10 μL of 12% glutaraldehyde containing Hoechst 33342 (0.06 mg/mL) was added to the cells (2% glutaraldehyde and 0.01 mg/mL final concentrations). The plates were incubated for 90 minutes at room temperature. The plates were then washed 3 times with 70 μL of PBS per well and imaged on a Cellomics ArrayScan instrument. The cells that were bound to the plate were counted and plotted against the compound concentration to determine the EC50 of the test compounds.

[2] = biological target: T2, α4β1 integrin (Homo sapiens, UniProt P05556+P13612); experiment: α4β1 Cell Capture Assay; format: cell-based; conditions: capture of α4β1 expressing Jurkat cells on VCAM-1 extracellular domain-coated plate
T2 construct: monitoring the capture of α4β1 expressing cells; endogenous in cells; host or cells: Jurkat
Experimental: The potency of inhibitors in preventing α4β1 integrin interaction with VCAM-1 was measured by monitoring the capture of α4β1 expressing cells to a recombinant VCAM-1 extracellular domain-coated plate.
384-well plates (Corning 3702) were coated with VCAM-1 extracellular domain by dispensing 20 μL of VCAM-1 at 0.5 μg/ml per well and incubating overnight at 4° C. The plates were then washed with PBS and blocked with 3% BSA for 2 hours before being washed again.
as §1, with “Jurkat cells” for “RPM18866 cells”, “0.5×10^6 cells/ml.” for “0.5×10^6 cells/mL.”, “blocked, VCAM-1-coated” for “blocked, MadCAM-1-coated”, “10 μl” for “10 μL”, “0.01 mg/ml Hoechst 33342” for “0.01 mg/mL”

T2 sequence (P05556 21-798, one chain of several): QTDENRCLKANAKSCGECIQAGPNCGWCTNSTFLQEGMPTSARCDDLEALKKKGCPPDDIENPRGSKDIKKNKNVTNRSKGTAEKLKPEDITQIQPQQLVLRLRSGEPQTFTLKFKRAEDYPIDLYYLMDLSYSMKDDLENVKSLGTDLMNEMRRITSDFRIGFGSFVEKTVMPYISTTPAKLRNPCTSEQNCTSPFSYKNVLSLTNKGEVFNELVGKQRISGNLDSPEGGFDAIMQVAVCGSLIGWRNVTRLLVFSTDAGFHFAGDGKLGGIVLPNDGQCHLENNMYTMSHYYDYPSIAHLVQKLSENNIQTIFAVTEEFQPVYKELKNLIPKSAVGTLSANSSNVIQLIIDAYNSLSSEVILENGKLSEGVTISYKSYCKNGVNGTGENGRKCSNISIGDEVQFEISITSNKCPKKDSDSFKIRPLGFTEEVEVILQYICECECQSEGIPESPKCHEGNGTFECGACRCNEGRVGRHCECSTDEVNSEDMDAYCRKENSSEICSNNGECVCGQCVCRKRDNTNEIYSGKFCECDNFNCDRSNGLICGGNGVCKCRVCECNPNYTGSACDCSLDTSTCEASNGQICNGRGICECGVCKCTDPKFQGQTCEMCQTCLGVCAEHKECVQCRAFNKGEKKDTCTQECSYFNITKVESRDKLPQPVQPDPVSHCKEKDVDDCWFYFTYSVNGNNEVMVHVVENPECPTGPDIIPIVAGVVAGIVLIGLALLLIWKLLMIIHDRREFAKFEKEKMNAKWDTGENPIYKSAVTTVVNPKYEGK

EC50 ([1]; Table 1)	EC50 ([2]; Table 1)	EC50 ([1]; Table 2)	EC50 ([2]; Table 2)	Compound
0.8 nM	38.9 nM	–	–	Cn1c(=O)n(-c2ccc(C[C@H](NC(=O)c3c(F)cc(N4CCOC[C@@H]4C(F)(F)F)cc3F)C(=O)O)cn2)c(=O)c2ccncc21 [Example 13, (S)-2-(2,6-difluoro-4-((R)-3-(trifluoromethyl)morpholino)benzamido)-3-(6-(1-methyl-2,4-dioxo-1,4-dihydropyrido[3,4-d]pyrimidin-3(2H)-yl)pyridin-3-yl)propanoic acid]
0.21 nM	10.6 nM	–	–	Cc1cc(N2CCOC[C@@H]2C(F)(F)F)cc(F)c1C(=O)N[C@@H](Cc1ccc(-n2c(=O)c3ccncc3n(C)c2=O)nc1)C(=O)O [Example 15, (S)-2-(2-fluoro-6-methyl-4-((R)-3-(trifluoromethyl)morpholino)benzamido)-3-(6-(1-methyl-2,4-dioxo-1,4-dihydropyrido[3,4-d]pyrimidin-3(2H)-yl)pyridin-3-yl)propanoic acid]
0.7 nM	58.9 nM	–	–	CC[C@@H](Nc1cc(F)c(C(=O)N[C@@H](Cc2ccc(-n3c(=O)c4ccncc4n(C)c3=O)nc2)C(=O)O)c(F)c1F)C(F)(F)F [Example 17, (S)-3-(6-(1-methyl-2,4-dioxo-1,4-dihydropyrido[3,4-d]pyrimidin-3(2H)-yl)pyridin-3-yl)-2-(2,3,6-trifluoro-4-(((R)-1,1,1-trifluorobutan-2-yl)amino)benzamido)propanoic acid]
2 nM	127 nM	–	–	CC[C@@H](N(c1cc(F)c(C(=O)N[C@@H](Cc2ccc(-n3c(=O)c4ccncc4n(C)c3=O)nc2)C(=O)O)c(F)c1)C1CC1)C(F)(F)F [Example 19, (S)-2-(4-(cyclopropyl((R)-1,1,1-trifluorobutan-2-yl)amino)-2,6-difluorobenzamido)-3-(6-(1-methyl-2,4-dioxo-1,4-dihydropyrido[3,4-d]pyrimidin-3(2H)-yl)pyridin-3-yl)propanoic acid]
0.2 nM	9.8 nM	–	–	Cc1cc(N2CCOC[C@@H]2C(F)(F)F)cc(F)c1C(=O)N[C@@H](Cc1ccc(-n2c(=O)c3ccncc3n(C)c2=O)cn1)C(=O)O [Example 23, (S)-2-(2-fluoro-6-methyl-4-((R)-3-(trifluoromethyl)morpholino)benzamido)-3-(5-(1-methyl-2,4-dioxo-1,4-dihydropyrido[3,4-d]pyrimidin-3(2H)-yl)pyridin-2-yl)propanoic acid]
0.1 nM	3.4 nM	–	–	Cc1cc(N2CCOC[C@@H]2C(F)(F)F)cc(F)c1C(=O)N[C@@H](Cc1ccc(-n2c(=O)c3ccncc3n(C)c2=O)cc1)C(=O)O [Example 25, (S)-2-(2-fluoro-6-methyl-4-((R)-3-(trifluoromethyl)morpholino)benzamido)-3-(4-(1-methyl-2,4-dioxo-1,4-dihydropyrido[3,4-d]pyrimidin-3(2H)-yl)phenyl)propanoic acid]
0.1 nM	8.6 nM	–	–	COc1cc(C[C@H](NC(=O)c2c(C)cc(N3CCOC[C@@H]3C(F)(F)F)cc2F)C(=O)O)ccc1-n1c(=O)c2ccncc2n(C)c1=O [Example 27, (S)-2-(2-fluoro-6-methyl-4-((R)-3-(trifluoromethyl)morpholino)benzamido)-3-(3-methoxy-4-(1-methyl-2,4-dioxo-1,4-dihydropyrido[3,4-d]pyrimidin-3(2H)-yl)phenyl)propanoic acid]
–	–	7.2 nM	70.7 nM	CCOCc1cc(OC)c(-c2ccc(C[C@H](NC(=O)c3c(F)cc(N[C@H](c4ccccc4)C(F)(F)F)cc3F)C(=O)O)cc2)c(OC)c1 [Example 28]
–	–	0.6 nM	29 nM	Cc1cc(C[C@H](NC(=O)c2c(F)cc(N3CCOC[C@@H]3C(F)(F)F)cc2F)C(=O)O)ccc1-c1c(C(F)(F)F)cc(C)n(C)c1=O [Example 29]
–	–	0.5 nM	10.1 nM	COc1cc(C)n(C)c(=O)c1-c1ccc(C[C@H](NC(=O)c2c(F)cc(N3CCOC[C@@H]3C(F)(F)F)cc2F)C(=O)O)cc1 [Example 30]
–	–	0.2 nM	11.6 nM	Cc1cc(C[C@H](NC(=O)c2c(C)cc(N3CCOC[C@@H]3C(F)(F)F)cc2F)C(=O)O)ccc1-c1c(C)n(C)c(=O)n(C)c1=O [Example 31]
–	–	1.2 nM	14.4 nM	CC[C@@H](Nc1cc(F)c(C(=O)N[C@@H](Cc2ccc(-c3c(C)n(C)c(=O)n(C)c3=O)cc2)C(=O)O)c(F)c1)C(F)(F)F [Example 32]
–	–	2.5 nM	105 nM	CC[C@@H](Nc1cc(F)c(C(=O)N[C@@H](Cc2ccc(-n3c(=O)c4cc(N(C)C)ccc4n(C)c3=O)cc2)C(=O)O)c(F)c1)C(F)(F)F [Example 33]
–	–	3.2 nM	61.4 nM	CC[C@@H](Nc1cc(F)c(C(=O)N[C@@H](Cc2ccc(-c3c(C)c4cc(F)ccc4n(C)c3=O)cc2)C(=O)O)c(F)c1)C(F)(F)F [Example 34]
–	–	1.1 nM	34.1 nM	Cn1c(=O)c(-c2ccc(C[C@H](NC(=O)c3c(F)cc(N4CCOC[C@@H]4C(F)(F)F)cc3F)C(=O)O)cc2)cc2cnccc21 [Example 35]
–	–	1.2 nM	27.3 nM	CN(C)c1ccc2c(c1)c(=O)n(-c1ccc(C[C@H](NC(=O)c3c(F)cc(N4CCOC[C@@H]4C(F)(F)F)cc3F)C(=O)O)cc1)c(=O)n2C [Example 36]
